Data on 26 sequences can be found in patent US20140343249A1, “CELL KILLING FUSION PEPTIDE EXHIBITING TUMOR CELL-SPECIFIC NECROSIS INDUCTION AND TUMOR REGRESSION” (INDUSTRY-ACADEMIC COOPERATION FOUNDATION, CHOSUN UNIVERSITY, priority 2011, published 2014).

Where no end group is shown, it is not given here.

Data set [1] can be described thus: Movement activity of mouse after I.V. injection. The data set is classed as in vivo. The note with it: 10-30 min after I.V. injection of 75 ul (1 mM) into BalB/C mouse (about 20 g).
The subject of data set [2] is CT-26 tumor. Briefly: In vivo screening of tumor regression activity, CT-26 tumor in BALB/C mice. Set-up: key to In vivo Screening: NR: no regression (no decrease on the tumor volume); ND: not determined. The following applies: for In vivo Screening: CT-26 tumor-bearing BALB/C mice, intravenous injection; for toxicity to the experimental animals: 100 ul (1 mM) intravenously 2-3 times (1 injection/day). Here is the method: In order to test tumor regression activity of the cell-killing CKP fusion peptides manufactured in Example 1, colon cell line, CT-26 (1.5×10^5 cells) was subcutaneously injected into dorsal skin of BALB/C mice of 6 weeks old to form tumor. After about 10 days, when the formed tumor volume reach to about 70±10 mm^3, the cancer cell specific CKP fusion peptide 100 ul (1 mM) was intravenously injected continuously 2-3 times (1 injection/day) into 3 mice, respectively, and after 10-13 days, change on the tumor tissue volume (length×wide^2×0.5) was observed.

Data set [3] concerns HeLa cells, cervical cancer cell line. Kind of data set: Cell-killing activity of CKP peptide variants in HeLa, crystal violet staining. Type of data set: cell-based, human. The following applies: 0-40 μM, 24 hours, peptides linked to PTD RRRRRRRRG
The text has this: In order to examine whether variants, in which some amino acids of the CKP peptide (SEQ ID NO: 21; KLLNLISKLF) of the present invention are substituted, also have cell-killing activity or not, CKP2 (1 amino acid was substituted) (SEQ ID NO: 22; KALNLISKLF), CKP3 (2 amino acids were substituted) (SEQ ID NO: 23; KLAALISKLF), CKP4 (2 amino acids were substituted) (SEQ ID NO: 24; KLLNLIAALF) and CKP5 (3 amino acids were substituted) (SEQ ID NO: 25; KALNLIAALF), which are CKP peptide variants in which 1-3 of amino acid residues linked to the known protein transduction domain (PTD) having RRRRRRRRG (RQ) sequence are substituted, were synthesized by the procedure described in Example 1. Further, in order to investigate influence of substitution at the leucine's repeat in the CKP, the CKP peptide variants, CKP6 (2nd and 3rd L were substituted to A) (SEQ ID NO: 26; KAANLISKLF), CKP7 (5th L was substituted to A) (SEQ ID NO: 27; KLLNAISKLF) and CKP8 (9th L was substituted to A) (SEQ ID NO: 28; KLLNLISKAF) linked to the RRRRRRRRG (RQ) sequence of the protein transduction domain (PTD) were synthesized by the procedure described in Example 1. In order to test cell-killing activity of the variants, a cervical cancer cell line, HeLa cells were cultured, and the culture medium was replaced with culture medium containing 0, 1, 5, 10, 15, 20, 30 and 40 μM CKP peptide, respectively, followed by further culturing for 24 hours. Living cells attached to the bottom were stained with 100 μl 0.5% crystal violet solution for 10 min, and washed off with distilled water or tap water to remove dead cells floating on the culture medium and also to destain the crystal violet solution. Then, the cells were observed by photography after placing the culture vessel under a fluorescent lamp box as depicted in FIG. 14. The living cells attached to the bottom and stained with the crystal violet were appeared blue color. […] Accordingly, it was identified that the Leucine sequence is a region playing a critical role in cell-killing activity of the CKP.

Data set [4] deals with cells. The note with it: in 10 minutes; cited from earlier work.
A short description of data set [5]: Hepatocyte toxicity: ALT and AST released to blood. The data set is classed as in vivo, mouse. The following applies: blood of treated groups by the time versus untreated control group. Here is the method:
In order to confirm toxicity of the cell-killing CKP fusion peptide (CTD7:CKP), the amounts of alanine amino transferase (ALT) and aspartate amino transferase (AST) released to blood from hepatocytes of the damaged liver were measured and whether the hepatocytes was damaged or not was confirmed, so as to judge toxicity by the cell-killing CKP fusion peptide.

Data set [6] relates to splenocytes. Kind of data set: Normal cell necrosis activity in splenocytes by XTT method. The data set is classed as cell-based, mouse. The following applies: splenocytes from BALB/c mice, 5, 10 and 20 μM, after 15 min. The text has this:
In order to test cell necrosis inducing activity of the cell-killing CKP fusion peptide (CTD7:CKP) selected in Example 3 in normal cells, primary peritoneal macrophages and splenocytes were isolated from BALB/c mice.
In order to obtain splenocytes, complete RPMI media was put into a cell culture dish, male mouse spleen was isolated, and tissue thereof was crushed and centrifuged. Pellet was washed once with media and centrifuged again, and ACK lysis buffer (0.15 M NH4Cl, […], 0.01 M Na2EDTA, pH 7.2-7.4) was added thereto and centrifuged again. Then the pellet was cultured in 5% FBS-containing complete RPMI media for primary culture of the splenocytes, and the media was replaced with culture medium containing 5, 10 and 20 μM of the cell-killing CKP fusion peptide (CTD7:CKP), and after 15 min, cell necrosis inducing activity was confirmed by XTT method.

For data set [7], the system named is liver tissue. Kind of data set: Toxicity in normal tissue (liver), histology. The data set is classed as in vivo, mouse. The note with it: intravenous injection, liver sections by the time. Here is the method: In order to evaluate the degree of toxicity to the liver tissue, liver tissue section was prepared as described in Example 8, and pathologically observed in a normal mice group not treated with the peptide, a tumor-formed group intravenously injected with 0.85% normal saline and groups intravenously injected with the cell-killing CKP fusion peptide by the time.

For the sequence “CGKRKGGKLLNLISKLF [CTD2:CKP, CGKRKGGKLLNLISKLF]”, the “Movement Activities” value in data set [1] was “Normal”.
The same measure, in the same setting: for “CGRDKGPDCKLLNLISKLF (Cell killing fusion peptide) [CTD12:CKP]” the value was “Normal”.
Regarding “CNGRCGGKLLNLISKLF (Cell killing fusion peptide) [CTD1:CKP]”, the “Movement Activities” value in data set [1] was “Slow”. In data set [2], the “In vivo Screening” value is “NR”.
As to “CRGDKGGKLLNLISKLF [CTD18:CKP, CRGDKGGKLLNLISKLF]”, the “Movement Activities” value in data set [1] is “Slow”.
The same measure, in the same setting: for “CRGDKGPDCKLLNLISKLF (Cell killing fusion peptide) [CTD15:CKP]” the value was “Normal”.
With KAANLISKLF [CKP6], in data set [3], the “cell-killing activity compared with the CKP peptide” value is “much decreased cell-killing activity”.
Same read-out and setting: for KALNLIAALF [CKP5] the value was “slightly decreased cell-killing activity”.
The same measure, in the same setting: for KALNLISKLF [CKP2] the value was “slightly decreased cell-killing activity”; for KLAALISKLF [CKP3], “slightly decreased cell-killing activity”; for KLLNAISKLF [CKP7], “much decreased cell-killing activity”.
On the same count and under the same terms, for KLLNLIAALF [CKP4] the value was “better cell-killing activity”; for KLLNLISKAF [CKP8], “much decreased cell-killing activity”.
Turning to KLLNLISKLF (Cell Killing Peptide) [MTD], the “cells killed (cell necrosis effect)” value in data set [4] is on record as not below 80%.
With “KLLNLISKLFCGRDKGPDC (Cell killing fusion peptide) [CTD13:CKP]”, the “Movement Activities” value in data set [1] is listed as “Normal”.
For the sequence “KLLNLISKLFCGRDKRLYDC (Cell killing fusion peptide) [CTD14:CKP]”, the “Movement Activities” value in data set [1] is listed as “Dead”. In data set [2], the “toxicity to the experimental animals” value is “dead” and the “In vivo Screening” value is “Dead”.
Take “KLLNLISKLFCRGDKGPDC (Cell killing fusion peptide) [CTD16:CKP]”: the “Movement Activities” value in data set [1] is recorded as “Slow”.
On to “KLLNLISKLFCRGDKRLYDC (Cell killing fusion peptide) [CTD17:CKP]”, for which, in data set [1], the “Movement Activities” value is “Slow”. Also, in data set [2], the “toxicity to the experimental animals” value was “toxicity removing the injected tail by necrosis” and the “In vivo Screening” value is “Toxic”.
For the sequence “KLLNLISKLFGGCGKRK [CTD3:CKP, KLLNLISKLFGGCGKRK]”, the “Movement Activities” value in data set [1] is listed as “Normal”.
Still for that read-out and setting: for “KLLNLISKLFGGCRGDK [CTD19:CKP, KLLNLISKLFGGCRGDK]” the value was “Normal”.
Regarding “KLLNLISKLFGGLGDRGDR (Cell killing fusion peptide) [CTD10:CKP]”, in data set [2], the “In vivo Screening” value is reported as “NR”.
For “KLLNLISKLFGGRLLRLLR [CTD6:CKP, KLLNLISKLFGGRLLRLLR]”, the “Movement Activities” value in data set [1] is given as “Normal”. Besides, the “toxicity to the experimental animals” value in data set [2] is recorded as “toxicity removing the injected tail by necrosis”.
As to “KLLNLISKLFGGRPARPAR [CTD8:CKP, KLLNLISKLFGGRPARPAR]”, the “Movement Activities” value in data set [1] is recorded as “Slow”.
As to “RLLRLLRGGKLLNLISKLF [CTD5:CKP, RLLRLLRGGKLLNLISKLF]”, in data set [1], the “Movement Activities” value was “Slow”. Also, the “toxicity to the experimental animals” value in data set [2] is reported as “toxicity removing the injected tail by necrosis”.
With “RPARPARGGKLLNLISKLF [CTD7:CKP, RPARPARGGKLLNLISKLF]”, the “Movement Activities” value in data set [1] was “Normal”. Moreover, the “toxicity to the experimental animals” value in data set [2] was “no toxicity”. For the same sequence, in data set [5], the “ALT released to blood (liver damage index)” value is listed as “no difference” and the “AST released to blood (liver damage index)” value is “no difference”. Also, the “cell-killing activity in normal cells” value in data set [6] is “did not show significant cell-killing activity”. Moreover, the “damage of liver tissue (histology)” value in data set [7] is given as “any significant damage was not observed”.
WDLAWMFRLPVGKLLNLISKLF [CTD11:CKP]: the “Movement Activities” value in data set [1] was “Normal”.
As to “WIFPWIQLKLLNLISKLF [CTD4:CKP, WIFPWIQLKLLNLISKLF]”, in data set [1], the “Movement Activities” value was “Slow”. Moreover, the “toxicity to the experimental animals” value in data set [2] was “toxicity removing the injected tail by necrosis”.
